ChEMBL document CHEMBL5678812, “Inhibitors of p21-activated kinases (PAKs)” (J Med Chem, 2015)

What was measured:
[1] = target: Serine/threonine-protein kinase Sgk3 (Homo sapiens) (UniProt Q96BR1); assay: Inhibition of SGK3 (unknown origin) at 0.1 uM relative to control
[2] = target: Casein kinase I isoform gamma-2 (Homo sapiens) (UniProt P78368); assay: Inhibition of CK1gamma2 (unknown origin) at 0.1 uM relative to control
[3] = target: Serine/threonine-protein kinase PAK 5 (Homo sapiens, UniProt Q9P286); assay: Inhibition of PAK5 (unknown origin) at 0.1 uM relative to control
[4] = target: Proto-oncogene tyrosine-protein kinase receptor Ret (Homo sapiens) (UniProt P07949); assay: Inhibition of Ret (unknown origin) at 0.1 uM relative to control
Chain of Proto-oncogene tyrosine-protein kinase receptor Ret (Homo sapiens) (P07949 whole entry): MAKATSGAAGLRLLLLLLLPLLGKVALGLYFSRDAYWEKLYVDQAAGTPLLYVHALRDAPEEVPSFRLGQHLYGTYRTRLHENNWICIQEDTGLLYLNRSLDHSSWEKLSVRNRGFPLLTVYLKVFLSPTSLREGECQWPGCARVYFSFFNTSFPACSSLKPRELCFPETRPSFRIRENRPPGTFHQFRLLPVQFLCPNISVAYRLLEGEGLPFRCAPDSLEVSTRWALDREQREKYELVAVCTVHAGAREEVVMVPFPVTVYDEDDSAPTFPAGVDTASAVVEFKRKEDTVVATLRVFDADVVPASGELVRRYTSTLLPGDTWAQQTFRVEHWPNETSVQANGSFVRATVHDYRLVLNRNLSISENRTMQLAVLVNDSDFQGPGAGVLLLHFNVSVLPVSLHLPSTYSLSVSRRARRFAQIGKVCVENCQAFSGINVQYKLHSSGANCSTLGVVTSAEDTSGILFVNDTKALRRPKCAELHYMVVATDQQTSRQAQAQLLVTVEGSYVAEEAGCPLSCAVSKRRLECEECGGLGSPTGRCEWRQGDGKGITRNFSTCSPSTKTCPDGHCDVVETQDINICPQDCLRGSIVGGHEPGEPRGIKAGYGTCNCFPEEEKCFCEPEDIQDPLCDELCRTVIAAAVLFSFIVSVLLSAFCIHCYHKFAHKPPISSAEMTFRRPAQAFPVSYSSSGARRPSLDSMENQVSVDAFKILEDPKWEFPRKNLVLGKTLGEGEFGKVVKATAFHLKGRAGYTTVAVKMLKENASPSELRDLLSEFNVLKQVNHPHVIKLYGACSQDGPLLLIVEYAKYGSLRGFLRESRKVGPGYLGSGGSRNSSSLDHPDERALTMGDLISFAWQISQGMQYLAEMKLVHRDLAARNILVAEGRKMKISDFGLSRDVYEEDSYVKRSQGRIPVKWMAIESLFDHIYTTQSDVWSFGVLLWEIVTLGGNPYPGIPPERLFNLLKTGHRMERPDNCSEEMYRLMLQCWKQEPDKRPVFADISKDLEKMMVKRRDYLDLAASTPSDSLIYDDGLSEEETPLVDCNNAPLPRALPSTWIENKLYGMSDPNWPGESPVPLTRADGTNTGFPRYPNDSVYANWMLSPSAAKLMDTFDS

[5] = target: Mitogen-activated protein kinase 9 (Homo sapiens) (UniProt P45984); assay: Inhibition of JNK2 (unknown origin) at 0.1 uM relative to control
[6] = target: Epidermal growth factor receptor (Homo sapiens) (UniProt P00533); assay: Inhibition of EGFR (unknown origin) at 0.1 uM relative to control
[7] = target: Homeodomain-interacting protein kinase 4 (Homo sapiens) (UniProt Q8NE63); assay: Inhibition of HIPK4 (unknown origin) at 0.1 uM relative to control
[8] = target: Ribosomal protein S6 kinase alpha-2 (Homo sapiens) (UniProt Q15349); assay: Inhibition of Rsk3 (unknown origin) at 0.1 uM relative to control
[9] = target: Ribosomal protein S6 kinase alpha-6 (Homo sapiens) (UniProt Q9UK32); assay: Inhibition of Rsk4 (unknown origin) at 0.1 uM relative to control
[10] = target: Glycogen synthase kinase-3 beta (Homo sapiens) (UniProt P49841); assay: Inhibition of GSK beta (unknown origin) at 0.1 uM relative to control
[11] = target: Tyrosine-protein kinase Mer (Homo sapiens) (UniProt Q12866); assay: Inhibition of Mer (unknown origin) at 0.1 uM relative to control
[12] = target: Tyrosine-protein kinase BTK (Homo sapiens) (UniProt Q06187); assay: Inhibition of BTK (unknown origin) at 0.1 uM relative to control
Chain of Tyrosine-protein kinase BTK (Homo sapiens) (Q06187 whole entry): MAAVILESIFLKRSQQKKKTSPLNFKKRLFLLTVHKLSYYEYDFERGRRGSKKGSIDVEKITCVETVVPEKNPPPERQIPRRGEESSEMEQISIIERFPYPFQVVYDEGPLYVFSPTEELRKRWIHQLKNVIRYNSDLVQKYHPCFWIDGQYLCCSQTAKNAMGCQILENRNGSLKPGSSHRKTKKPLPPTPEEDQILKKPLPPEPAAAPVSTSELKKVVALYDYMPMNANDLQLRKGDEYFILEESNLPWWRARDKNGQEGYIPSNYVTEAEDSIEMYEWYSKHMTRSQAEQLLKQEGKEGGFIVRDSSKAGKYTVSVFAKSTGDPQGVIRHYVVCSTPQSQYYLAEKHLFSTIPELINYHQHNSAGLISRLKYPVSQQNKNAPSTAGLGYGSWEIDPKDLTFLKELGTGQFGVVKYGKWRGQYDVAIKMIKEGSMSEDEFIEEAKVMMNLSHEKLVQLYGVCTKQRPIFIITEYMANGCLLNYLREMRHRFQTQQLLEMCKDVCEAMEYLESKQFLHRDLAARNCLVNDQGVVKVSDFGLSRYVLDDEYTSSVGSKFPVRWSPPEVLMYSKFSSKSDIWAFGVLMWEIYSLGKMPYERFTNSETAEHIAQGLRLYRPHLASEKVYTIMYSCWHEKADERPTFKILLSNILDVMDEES

[13] = target: Macrophage-stimulating protein receptor (Homo sapiens) (UniProt Q04912); assay: Inhibition of Ron (unknown origin) at 0.1 uM relative to control
[14] = target: Macrophage colony-stimulating factor 1 receptor (Homo sapiens) (UniProt P07333); assay: Inhibition of CSF1R (unknown origin) at 0.1 uM relative to control
Chain of Macrophage colony-stimulating factor 1 receptor (Homo sapiens) (P07333 whole entry): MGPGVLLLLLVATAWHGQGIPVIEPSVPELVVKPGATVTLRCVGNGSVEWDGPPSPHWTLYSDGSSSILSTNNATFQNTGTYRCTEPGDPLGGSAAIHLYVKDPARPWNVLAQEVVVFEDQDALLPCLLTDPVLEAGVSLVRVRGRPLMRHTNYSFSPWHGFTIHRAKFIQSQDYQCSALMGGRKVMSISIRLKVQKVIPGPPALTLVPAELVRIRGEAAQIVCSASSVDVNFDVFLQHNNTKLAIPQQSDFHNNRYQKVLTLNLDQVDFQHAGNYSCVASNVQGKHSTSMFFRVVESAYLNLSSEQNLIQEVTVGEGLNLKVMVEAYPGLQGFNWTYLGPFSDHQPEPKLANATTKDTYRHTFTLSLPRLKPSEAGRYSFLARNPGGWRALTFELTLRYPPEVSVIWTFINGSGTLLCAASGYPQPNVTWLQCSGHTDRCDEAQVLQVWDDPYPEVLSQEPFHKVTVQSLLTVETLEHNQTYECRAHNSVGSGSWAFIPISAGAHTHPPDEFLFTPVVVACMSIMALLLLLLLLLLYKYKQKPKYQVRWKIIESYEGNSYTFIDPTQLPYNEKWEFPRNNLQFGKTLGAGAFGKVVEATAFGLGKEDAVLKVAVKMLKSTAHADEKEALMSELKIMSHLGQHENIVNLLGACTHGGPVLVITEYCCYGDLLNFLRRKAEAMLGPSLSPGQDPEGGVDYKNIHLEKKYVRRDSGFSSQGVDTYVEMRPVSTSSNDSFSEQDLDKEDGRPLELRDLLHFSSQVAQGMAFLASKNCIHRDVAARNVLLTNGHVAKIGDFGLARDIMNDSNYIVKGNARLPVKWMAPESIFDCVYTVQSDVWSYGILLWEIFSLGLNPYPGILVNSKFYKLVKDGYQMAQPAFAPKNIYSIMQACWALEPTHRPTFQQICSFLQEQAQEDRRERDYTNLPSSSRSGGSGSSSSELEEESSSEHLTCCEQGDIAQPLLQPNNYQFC

[15] = target: Tyrosine-protein kinase JAK2 (Homo sapiens) (UniProt O60674); assay: Inhibition of JAK2 (unknown origin) at 0.1 uM relative to control
[16] = target: Aurora kinase A (Homo sapiens) (UniProt O14965); assay: Inhibition of Aurora A (unknown origin) at 0.1 uM relative to control
[17] = target: Fibroblast growth factor receptor 3 (Homo sapiens) (UniProt P22607); assay: Inhibition of FGFR3 (unknown origin) at 0.1 uM relative to control
[18] = target: High affinity nerve growth factor receptor (Homo sapiens) (UniProt P04629); assay: Inhibition of TrkA (unknown origin) at 0.1 uM relative to control
[19] = target: Tyrosine-protein kinase JAK3 (Homo sapiens) (UniProt P52333); assay: Inhibition of JAK3 (unknown origin) at 0.1 uM relative to control
Chain of Tyrosine-protein kinase JAK3 (Homo sapiens) (P52333 whole entry): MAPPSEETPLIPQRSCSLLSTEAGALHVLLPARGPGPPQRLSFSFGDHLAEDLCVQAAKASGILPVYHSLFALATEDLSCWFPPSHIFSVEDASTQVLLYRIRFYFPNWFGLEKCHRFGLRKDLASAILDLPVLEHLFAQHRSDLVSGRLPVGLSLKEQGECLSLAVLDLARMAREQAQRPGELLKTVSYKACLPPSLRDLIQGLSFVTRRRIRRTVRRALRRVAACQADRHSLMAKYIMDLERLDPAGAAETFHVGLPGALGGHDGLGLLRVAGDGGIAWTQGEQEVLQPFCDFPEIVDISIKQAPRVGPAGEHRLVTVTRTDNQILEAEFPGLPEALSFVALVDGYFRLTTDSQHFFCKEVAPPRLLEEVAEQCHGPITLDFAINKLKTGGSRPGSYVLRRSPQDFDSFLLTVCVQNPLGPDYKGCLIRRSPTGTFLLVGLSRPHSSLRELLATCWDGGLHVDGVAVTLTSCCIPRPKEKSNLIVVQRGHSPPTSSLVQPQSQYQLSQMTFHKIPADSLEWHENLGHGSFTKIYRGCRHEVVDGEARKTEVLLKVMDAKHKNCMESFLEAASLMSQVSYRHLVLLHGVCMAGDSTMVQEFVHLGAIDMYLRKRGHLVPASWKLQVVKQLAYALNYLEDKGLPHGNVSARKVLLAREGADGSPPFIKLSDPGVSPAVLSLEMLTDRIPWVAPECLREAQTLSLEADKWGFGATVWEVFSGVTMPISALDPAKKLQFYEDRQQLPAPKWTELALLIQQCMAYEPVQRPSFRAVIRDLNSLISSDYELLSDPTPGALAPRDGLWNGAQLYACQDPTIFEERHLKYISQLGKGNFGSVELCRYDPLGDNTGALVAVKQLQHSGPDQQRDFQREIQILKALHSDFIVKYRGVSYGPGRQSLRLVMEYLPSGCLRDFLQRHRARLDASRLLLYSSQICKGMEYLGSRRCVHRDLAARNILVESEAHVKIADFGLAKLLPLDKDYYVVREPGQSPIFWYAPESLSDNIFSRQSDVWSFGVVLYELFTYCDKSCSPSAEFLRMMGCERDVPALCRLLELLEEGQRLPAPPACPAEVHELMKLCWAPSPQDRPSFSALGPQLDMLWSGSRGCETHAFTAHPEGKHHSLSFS

[20] = target: Casein kinase II subunit alpha (Homo sapiens) (UniProt P68400); assay: Inhibition of CK2alpha1 (unknown origin) at 0.1 uM relative to control
[21] = target: Hepatocyte growth factor receptor (Homo sapiens) (UniProt P08581); assay: Inhibition of Met (unknown origin) at 0.1 uM relative to control
[22] = target: Serine/threonine-protein kinase PAK 6 (Homo sapiens, UniProt Q9NQU5); assay: Inhibition of PAK6 (unknown origin) at 0.1 uM relative to control
[23] = target: Serine/threonine-protein kinase D1 (Homo sapiens) (UniProt Q15139); assay: Inhibition of PKD1 (unknown origin) at 0.1 uM relative to control
[24] = target: Ephrin type-A receptor 1 (Homo sapiens) (UniProt P21709); assay: Inhibition of EphA1 (unknown origin) at 0.1 uM relative to control
[25] = target: Platelet-derived growth factor receptor beta (Homo sapiens) (UniProt P09619); assay: Inhibition of PDGFRbeta (unknown origin) at 0.1 uM relative to control
[26] = target: MAP/microtubule affinity-regulating kinase 3 (Homo sapiens) (UniProt P27448); assay: Inhibition of MARK3 (unknown origin) at 0.1 uM relative to control
Chain of MAP/microtubule affinity-regulating kinase 3 (Homo sapiens) (P27448 whole entry, looked up): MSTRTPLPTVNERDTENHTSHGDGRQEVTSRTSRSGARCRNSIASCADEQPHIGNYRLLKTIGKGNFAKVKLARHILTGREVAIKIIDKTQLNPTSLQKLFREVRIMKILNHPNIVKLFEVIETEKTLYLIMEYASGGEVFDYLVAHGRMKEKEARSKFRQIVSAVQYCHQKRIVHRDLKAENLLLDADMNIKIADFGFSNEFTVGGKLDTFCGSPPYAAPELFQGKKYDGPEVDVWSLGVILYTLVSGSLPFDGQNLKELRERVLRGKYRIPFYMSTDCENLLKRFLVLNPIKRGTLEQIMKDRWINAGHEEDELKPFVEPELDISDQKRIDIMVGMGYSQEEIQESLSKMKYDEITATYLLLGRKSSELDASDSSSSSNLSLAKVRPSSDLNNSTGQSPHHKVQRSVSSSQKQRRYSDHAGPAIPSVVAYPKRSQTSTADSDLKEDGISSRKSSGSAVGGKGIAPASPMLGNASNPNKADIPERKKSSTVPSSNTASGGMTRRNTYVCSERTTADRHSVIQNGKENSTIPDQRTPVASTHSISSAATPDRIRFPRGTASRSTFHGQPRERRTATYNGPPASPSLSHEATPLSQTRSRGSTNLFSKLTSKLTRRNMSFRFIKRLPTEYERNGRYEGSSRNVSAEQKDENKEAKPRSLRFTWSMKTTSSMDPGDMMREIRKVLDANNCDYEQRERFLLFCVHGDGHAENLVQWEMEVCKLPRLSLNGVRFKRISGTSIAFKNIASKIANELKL

[27] = target: Glycogen synthase kinase-3 alpha (Homo sapiens) (UniProt P49840); assay: Inhibition of GSK3alpha (unknown origin) at 0.1 uM relative to control
[28] = target: Fibroblast growth factor receptor 1 (Homo sapiens) (UniProt P11362); assay: Inhibition of FGFR1 (unknown origin) at 0.1 uM relative to control
[29] = target: Serine/threonine-protein kinase SIK2 (Homo sapiens) (UniProt Q9H0K1); assay: Inhibition of SIK2 (unknown origin) at 0.1 uM relative to control
[30] = target: Insulin receptor-related protein (Homo sapiens) (UniProt P14616); assay: Inhibition of IRR (unknown origin) at 0.1 uM relative to control
[31] = target: Insulin-like growth factor 1 receptor (Homo sapiens) (UniProt P08069); assay: Inhibition of IGF1R (unknown origin) at 0.1 uM relative to control
[32] = target: Serine/threonine-protein kinase PLK3 (Homo sapiens) (UniProt Q9H4B4); assay: Inhibition of PLK3 (unknown origin) at 0.1 uM relative to control
Homo sapiens [33] = species: Homo sapiens; assay: Inhibition of p70S6K (unknown origin) at 0.1 uM relative to control
[34] = target: Mitogen-activated protein kinase kinase kinase 9 (Homo sapiens) (UniProt P80192); assay: Inhibition of MLK1 (unknown origin) at 0.1 uM relative to control
[35] = target: Dual specificity mitogen-activated protein kinase kinase 1 (Homo sapiens) (UniProt Q02750); assay: Inhibition of MEK1 (unknown origin) at 0.1 uM relative to control
[36] = target: Inhibitor of nuclear factor kappa-B kinase subunit beta (Homo sapiens) (UniProt O14920); assay: Inhibition of IKK beta (unknown origin) at 0.1 uM relative to control
Homo sapiens [37] = species: Homo sapiens; assay: Inhibition of PDGFRalpha V560D mutant (unknown origin) at 0.1 uM relative to control
[38] = target: Mast/stem cell growth factor receptor Kit (Homo sapiens) (UniProt P10721); assay: Inhibition of Kit (unknown origin) at 0.1 uM relative to control
[39] = target: Serine/threonine-protein kinase MARK1 (Homo sapiens) (UniProt Q9P0L2); assay: Inhibition of MARK1 (unknown origin) at 0.1 uM relative to control
[40] = target: 5'-AMP-activated protein kinase catalytic subunit alpha-1 (Homo sapiens) (UniProt Q13131); assay: Inhibition of PRKAA1 (unknown origin) at 0.1 uM relative to control

Chain of Casein kinase I isoform gamma-2 (Homo sapiens) (P78368 whole entry, looked up, canonical isoform): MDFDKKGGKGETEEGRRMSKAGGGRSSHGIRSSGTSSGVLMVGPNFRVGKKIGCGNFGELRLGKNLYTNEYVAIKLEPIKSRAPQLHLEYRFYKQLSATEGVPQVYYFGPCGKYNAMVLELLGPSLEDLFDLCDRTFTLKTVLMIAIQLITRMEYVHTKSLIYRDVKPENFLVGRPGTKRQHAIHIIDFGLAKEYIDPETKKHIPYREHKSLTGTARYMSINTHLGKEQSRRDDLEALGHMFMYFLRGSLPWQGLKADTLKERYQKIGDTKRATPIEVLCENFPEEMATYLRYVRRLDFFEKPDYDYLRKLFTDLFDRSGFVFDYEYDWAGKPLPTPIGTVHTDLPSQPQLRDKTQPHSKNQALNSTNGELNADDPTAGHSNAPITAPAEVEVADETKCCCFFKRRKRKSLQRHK

## CN1CCc2cc(-c3cnc4[nH]cc(C(=O)c5ccccc5Cl)c4c3)ccc2C1
[1]
  inhibition: 19.5%
[2]
  inhibition: -1.5%
[3]
  inhibition: 28.5%
[4]
  inhibition: 18.4%
[5]
  inhibition: 14.8%
[6]
  inhibition: 38%
[7]
  inhibition: 18.6%
[8]
  inhibition: -6%
[9]
  inhibition: 11.9%
[10]
  inhibition: 11%
[11]
  inhibition: 53.8%
[12]
  inhibition: 86.3%
[13]
  inhibition: 92.1%
[14]
  inhibition: 85.7%
[15]
  inhibition: 50.3%
[16]
  inhibition: 25.9%
[17]
  inhibition: 45.5%
[18]
  inhibition: 51.6%
[19]
  inhibition: 45.4%
[20]
  inhibition: -3.5%
[21]
  inhibition: 13.3%
[22]
  inhibition: 21.8%
[23]
  inhibition: 49.5%
[24]
  inhibition: 90.7%
[25]
  inhibition: 96%
[26]
  inhibition: 37%
[27]
  inhibition: 40.6%
[28]
  inhibition: 83%
[29]
  inhibition: 96.3%
[30]
  inhibition: 14.5%
[31]
  inhibition: 6.5%
[32]
  inhibition: -5.8%
Homo sapiens [33]
  inhibition: 15.3%
[34]
  inhibition: 11.4%
[35]
  inhibition: 23.8%
[36]
  inhibition: 3.3%
Homo sapiens [37]
  inhibition: 66.9%
[38]
  inhibition: 37%
[39]
  inhibition: 25.8%
[40]
  inhibition: 16%

## COCCNc1nc2ccc(C#CC3(O)CCCCC3)cc2n1-c1ccnc(N)n1
[1]
  inhibition: 9.3%
[2]
  inhibition: 18.3%
[3]
  inhibition: 75.1%
[4]
  inhibition: 4.4%
[5]
  inhibition: -1%
[6]
  inhibition: 2.4%
[7]
  inhibition: 5%
[8]
  inhibition: 14.9%
[9]
  inhibition: 2.4%
[10]
  inhibition: 4.6%
[11]
  inhibition: 8.2%
[12]
  inhibition: 0.8%
[13]
  inhibition: 0.3%
[14]
  inhibition: 2.5%
[15]
  inhibition: 3.4%
[16]
  inhibition: 10.3%
[17]
  inhibition: 7.6%
[18]
  inhibition: 9%
[19]
  inhibition: -1.3%
[20]
  inhibition: 5.2%
[21]
  inhibition: 2.6%
[22]
  inhibition: 49.9%
[23]
  inhibition: 16.4%
[24]
  inhibition: 5%
[25]
  inhibition: 0.7%
[26]
  inhibition: 5.5%
[27]
  inhibition: 9.7%
[28]
  inhibition: -4.5%
[29]
  inhibition: 0.8%
[30]
  inhibition: 7.4%
[31]
  inhibition: 2.9%
[32]
  inhibition: 9.2%
Homo sapiens [33]
  inhibition: 7.2%
[34]
  inhibition: 15.4%
[35]
  inhibition: 2.5%
[36]
  inhibition: 6.5%
Homo sapiens [37]
  inhibition: -3.5%
[38]
  inhibition: -5.5%
[39]
  inhibition: 11.3%
[40]
  inhibition: 10.6%
